The values that follow are results of earlier work, collected in patent publication US11872093B1, “Method of marking lesions” (NoduGloH LLC, priority 2022, dated 2024).

Structures are written as SMILES.

The conditions of the series: ICG dye marking without use of a coil.

With `CC1(C)C(/C=C/C=C/C=C/C=C2\N(CCCCS(=O)(=O)O)c3ccc4ccccc4c3C2(C)C)=[N+](CCCCS(=O)(=O)[O-])c2ccc3ccccc3c21` [ICG dye, Indocyanine Green], the “persistence of dye effect after marking without a coil” value is “fade away over several hours”.
